Reference: US5006555A, “Esters of 2-arylmethyl-1-naphthol derivatives as 5-lipoxygenase inhibitors” (E. I. Du Pont de Nemours and Company, priority 1990, dated 1991)

What was measured:
5-lipoxygenase = target: T1, 5-lipoxygenase (Rattus norvegicus, UniProt P12527); assay: 5-lipoxygenase inhibition in vitro, RBL-1 cell supernatant as enzyme source; type: biochemical; details: 10,000 xg supernatant of homogenized rat basophilic leukemia (RBL-1) cells, pH 7.0 phosphate buffer, 14C-arachidonic acid, 37°, two minutes
T1 construct: endogenous in cells; host or cells: RBL-1 (rat basophilic leukemia) cells, 10,000 xg supernatant of the homogenate
T1 sequence (P12527 1-673): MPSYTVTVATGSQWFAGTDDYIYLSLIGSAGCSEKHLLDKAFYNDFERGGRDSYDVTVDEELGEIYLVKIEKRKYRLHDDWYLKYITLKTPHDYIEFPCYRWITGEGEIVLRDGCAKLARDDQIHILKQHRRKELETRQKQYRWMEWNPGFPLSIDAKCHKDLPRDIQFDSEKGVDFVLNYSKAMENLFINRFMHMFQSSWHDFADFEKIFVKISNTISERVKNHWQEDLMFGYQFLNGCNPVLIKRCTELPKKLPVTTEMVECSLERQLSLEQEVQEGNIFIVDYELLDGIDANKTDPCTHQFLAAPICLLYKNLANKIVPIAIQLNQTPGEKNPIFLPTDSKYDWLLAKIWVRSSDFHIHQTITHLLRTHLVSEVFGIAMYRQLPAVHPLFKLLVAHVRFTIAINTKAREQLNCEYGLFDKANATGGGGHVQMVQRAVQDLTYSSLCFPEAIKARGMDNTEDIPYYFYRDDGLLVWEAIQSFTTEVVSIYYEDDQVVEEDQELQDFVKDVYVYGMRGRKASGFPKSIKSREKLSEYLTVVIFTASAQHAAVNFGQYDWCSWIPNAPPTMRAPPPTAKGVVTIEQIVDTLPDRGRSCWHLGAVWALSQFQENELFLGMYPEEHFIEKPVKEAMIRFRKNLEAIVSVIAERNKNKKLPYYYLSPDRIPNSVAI
Experimental: The test method is a modification of the procedure developed by Jakschik et al. (Prostaglandins (1978) 16. 733; Biochem. Biophys. Res. Commun. (1980) 95. 103; Biochem. Biophys, Res. Commun. (1981) 102 624).
The 10,000 xg supernatant from homogenized RBL-1 cells was incubated with test compound in a pH 7.0 phosphate buffer for about five minutes. ^14 C-arachidonic acid was added to initiate the reaction, which was allowed to continue at 37° for two minutes. The reaction was stopped by freezing in a dry ice/ethanol slurry and the 5-lipoxygenase products were separated from the substrate on silica gel columns. The amount of individual lipoxygenase products produced was determined and the percent inhibition calculated.

[1] = test system: arachidonic acid-induced ear edema; assay: arachidonic acid-induced ear edema in mice; type: in vivo; details: Mus musculus, 1 h; 100 μg/ear topical in acetone, CF1 mice, 1 mg arachidonic acid, one hour after challenge; >30% significant, 50% and above good to excellent
Experimental: This assay indicates a specific use in the treatment of skin diseases such as psoriasis. This assay also implies a reduction in leukotrienes caused by the compounds of the invention and indicates the use of these compounds in other diseases where the production of leukotrienes is involved in the pathological process. The assay is a modification of the procedure described by Young et al. (J. Invest. Dermatol. (1983) 80. 48).
Arachidonic acid (1 mg) was applied as an acetone solution to the inner surface of the pinna of CF1 mice. Test compound dissolved in acetone was applied to the ear just prior to the arachidonic acid challenge. One hour after challenge, 6 mm disks were removed from the ear with a biopsy punch and the weight determined. The results were determined as a percent inhibition of the swelling which occurred in the absence of the test compound.
Significant inhibitory activity is considered to be greater than 30% inhibition. 50% and above is considered to be good to excellent activity.

Row | IC50 (5-lipoxygenase) [µM] | SMILES | inhibition in vivo at 100 µg/ear [1] [%]
1 | 0.09 | COc1ccc(Cc2ccc3ccccc3c2OC(C)=O)cc1 [Example 10] | 53
2 | 0.58 | COc1ccc(Cc2ccc3ccccc3c2OC(C)=O)cc1OC [Example 11] | –
3 | 0.19 | CC(=O)Oc1c(Cc2ccc3c(c2)OCO3)ccc2ccccc12 [Example 14] | –
4 | 0.07 | CC(=O)Oc1c(Cc2cccs2)ccc2ccccc12 [Example 17] | 52

Continued, molecule first:

Row | SMILES | IC50 (5-lipoxygenase) [µM] | inhibition in vivo at 100 µg/ear [1] [%]
5 | CC(=O)Oc1c(Cc2ccccc2)ccc2ccccc12 [Example 1, 1-acetoxy-2-phenylmethylnaphthalene] | 0.14 | 66
6 | CCOC(=O)Oc1c(Cc2ccccc2)ccc2ccccc12 [Example 2, 1-ethoxycarbonyloxy-2-phenylmethyl naphthalene] | 1.2 | 50
7 | O=C(O)CCC(=O)Oc1c(Cc2ccccc2)ccc2ccccc12 [Example 3, 1-(3-carboxvpropionvloxv)-2-phenylmethvlnaphthalene] | 0.53 | –
8 | CN(C)CCCC(=O)Oc1c(Cc2ccccc2)ccc2ccccc12 [Example 4, 1-(4-demethylamine-butyryloxy)-2-phenylmethvlnaohthalene hvdrochloride] | 0.52 | 44
9 | CC(=O)Oc1c(Cc2ccccc2F)ccc2ccccc12 [Example 7] | – | 72
10 | CC(=O)Oc1c(Cc2cccc(F)c2)ccc2ccccc12 [Example 8] | 0.062 | –
11 | CC(=O)Oc1ccc(Cc2ccc3ccccc3c2OC(C)=O)cc1OC(C)=O [Example 12, 1-acetoxy-2-(3,4-diaacetoxyphenylmethyl)naphthalene] | 1.6 | 35
12 | CC(=O)Oc1c(Cc2ccc(N(C)C)cc2)ccc2ccccc12 [Example 15, 1-acetoxy-2-(4-dimethylaminophenylmethyl)naphthalene] | 0.81 | 49
